How the values were obtained:
Settings in all cases: incubation time: 72 h
HDQ-P1 [1] = assay: drug sensitivity score (DSS), CellTiter-Glo (DSS (AUC-based score)); higher = stronger drug effect (viability inhibition or cytotoxicity); extreme values may be limits of the assay
Method in brief: (§1)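 The drug sensitivity score reflects the area under a fitted dose-response curve. To obtain it, breast cancer cells in 20 µl suspension were seeded into 384-well plates containing compound at 5 concentrations, 10-fold apart over a compound-specific 10,000-fold range, and incubated 72 h. CellTox Green fluorescence (485/520 nm) was read first and CellTiter-Glo luminescence second, after 10 min at room temperature. Each plate was normalised to 0.1 % DMSO and a positive kill control.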

MCF-10A [2] = assay: as above
Method in brief: as §1

HCC1599 [3] = assay: as above
Method in brief: as §1

DU-4475 [4] = assay: as above
Method in brief: as §1

MDA-MB-453 [5] = assay: as above
Method in brief: as §1

CAL-85-1 [6] = assay: as above
Method in brief: as §1

SK-BR-3 = assay: as above
Method in brief: as §1

CAL-51 [7] = assay: as above
Method in brief: as §1

Hs578T [8] = assay: as above
Method in brief: as §1

CAL-120 = assay: drug sensitivity score (DSS), CellTox Green (DSS (AUC-based score)); higher = stronger drug effect (viability inhibition or cytotoxicity); extreme values may be limits of the assay
Method in brief: as §1

MDA-MB-468 = assay: as above
Method in brief: as §1

HDQ-P1 [9] = assay: as above
Method in brief: as §1

MCF-10A [10] = assay: as above
Method in brief: as §1

MDA-MB-436 = assay: as above
Method in brief: as §1

HCC1599 [11] = assay: as above
Method in brief: as §1

DU-4475 [12] = assay: as above
Method in brief: as §1

MDA-MB-453 [13] = assay: as above
Method in brief: as §1

HCC1143 = assay: as above
Method in brief: as §1

BT-549 = assay: as above
Method in brief: as §1

CAL-85-1 [14] = assay: as above
Method in brief: as §1

HCC1937 = assay: as above
Method in brief: as §1

MFM-223 = assay: as above
Method in brief: as §1

BT-474 = assay: as above
Method in brief: as §1

CAL-51 [15] = assay: as above
Method in brief: as §1

Hs578T [16] = assay: as above
Method in brief: as §1

CAL-148 = assay: as above
Method in brief: as §1

MDA-MB-231 = assay: as above
Method in brief: as §1

Row | SMILES | drug sensitivity score (HDQ-P1 [1]) | drug sensitivity score (MCF-10A [2]) | drug sensitivity score (HCC1599 [3]) | drug sensitivity score (DU-4475 [4]) | drug sensitivity score (MDA-MB-453 [5]) | drug sensitivity score (CAL-85-1 [6]) | drug sensitivity score (SK-BR-3) | drug sensitivity score (CAL-51 [7]) | drug sensitivity score (Hs578T [8]) | drug sensitivity score (CAL-120) | drug sensitivity score (MDA-MB-468) | drug sensitivity score (HDQ-P1 [9]) | drug sensitivity score (MCF-10A [10]) | drug sensitivity score (MDA-MB-436) | drug sensitivity score (HCC1599 [11]) | drug sensitivity score (DU-4475 [12]) | drug sensitivity score (MDA-MB-453 [13]) | drug sensitivity score (HCC1143) | drug sensitivity score (BT-549) | drug sensitivity score (CAL-85-1 [14]) | drug sensitivity score (HCC1937) | drug sensitivity score (MFM-223) | drug sensitivity score (BT-474) | drug sensitivity score (CAL-51 [15]) | drug sensitivity score (Hs578T [16]) | drug sensitivity score (CAL-148) | drug sensitivity score (MDA-MB-231)
1 | O=C(/C=C/c1cccnc1)NCCCCC1CCN(C(=O)c2ccccc2)CC1 [Daporinad] | 18 | 23.2 | 29.4 | 25.2 | 26.8 | 22 | 0 | 0 | 26.8 | 0 | 0.89 | 0 | 0 | 0 | 0 | 0 | 0 | 0 | 0 | 0 | 10.4 | 0 | 0 | 0 | 0 | 0 | 0
2 | Nc1ncn([C@H]2C[C@H](O)[C@@H](CO)O2)c(=O)n1 [Decitabine] | 0.141 | 0 | 0 | 0 | 0 | 0 | 0 | 3.54 | 0.0828 | 0 | 0.872 | 0 | 0 | 0 | 0 | 0 | 0.571 | 0 | 0 | 2.72 | 0 | 0 | 0 | 7.63 | 0 | 0 | 0
3 | Nc1ccccc1NC(=O)c1ccc(CNC(=O)OCc2cccnc2)cc1 [Entinostat] | 2.05 | 0 | 4.34 | 4.63 | 6.08 | 1.24 | 6.67 | 12.8 | 4.83 | 0 | 11.1 | 0 | 0 | 4.39 | 0 | 0 | 0 | 0 | 0 | 4.07 | 1.35 | 1.09 | 0 | 7.91 | 0 | 1.86 | 1.91
4 | CC[C@H](Nc1ncnc2[nH]cnc12)c1nc2cccc(F)c2c(=O)n1-c1ccccc1 [GS-1101] | 1.93 | 0 | 0 | 0 | 0 | 0 | 0 | 0 | 0 | 0 | 3.82 | 0 | 0 | 0 | 0 | 0 | 0 | 0 | 0 | 0 | 0 | 0 | 0 | 0 | 0 | 0 | 4.13
5 | C=CC(=O)N1CCC[C@@H](n2nc(-c3ccc(Oc4ccccc4)cc3)c3c(N)ncnc32)C1 [Ibrutinib] | 3.29 | 4.67 | 0 | 0 | 5.93 | 2.66 | 17.4 | 2.76 | 0 | 0 | 0 | 0.282 | 0 | 0 | 0 | 0 | 1.03 | 0 | 0 | 4.71 | 0 | 0 | 2.25 | 0.377 | 0 | 0 | 0
6 | O=C(Cc1ccc(-c2ccc(OCCN3CCOCC3)cc2)cn1)NCc1ccccc1 [KX2-391] | 8.26 | 8.52 | 23.8 | 15.2 | 9 | 18.5 | 27.5 | 25.9 | 23.2 | 1.54 | 30.1 | 4.28 | 15.5 | 4.73 | 3.99 | 0 | 0 | 0 | 0 | 17.3 | 3.38 | 13.2 | 3.97 | 20.3 | 11.4 | 0 | 0
7 | N#Cc1ccc(C(c2ccc(C#N)cc2)n2cncn2)cc1 [Letrozole] | 0 | 0 | 0 | 0 | 0 | 0 | 0 | 0 | 0 | 0 | 4.02 | 0 | 0 | 0 | 0 | 0 | 0 | 0 | 0 | 0 | 0 | 0 | 0 | 0 | 0.858 | 0 | 0
8 | C[C@H]1C[C@@H]2[C@H]([C@@H](O)C[C@@]3(C)[C@H]2CC[C@]3(O)C(=O)CO)[C@@]2(C)C=CC(=O)C=C12 [Methylprednisolone] | 1.31 | 0 | 0 | 0 | 0 | 0 | 0 | 0 | 0 | 0 | 0 | 0 | 0 | 0 | 0 | 0 | 0 | 0 | 0 | 0 | 0 | 0 | 0 | 0 | 0 | 0 | 0
9 | C=CCc1cccc(/C=N/NC(=O)CN2CCN(Cc3ccccc3)CC2)c1O [PAC-1] | 1.79 | 0 | 1.71 | 4.02 | 5.01 | 3 | 3.2 | 8.79 | 0 | 0 | 0 | 0 | 0 | 0 | 0 | 0 | 0 | 0 | 8.49 | 0 | 0 | 0 | 1 | 4.72 | 0 | 0 | 0
10 | Nc1nc2[nH]cc(CCc3ccc(C(=O)N[C@@H](CCC(=O)O)C(=O)O)cc3)c2c(=O)[nH]1 [Pemetrexed] | 2.5 | 0 | 0 | 0 | 0 | 13.4 | 11 | 13.7 | 23.6 | 0 | 1.29 | 0 | 0.385 | 0 | 0 | 0 | 0 | 0 | 0 | 0 | 0 | 0 | 0 | 0 | 0.581 | 0 | 2.43
11 | CC[C@H](C)C(=O)O[C@H]1C[C@H](O)C=C2C=C[C@H](C)[C@H](CC[C@@H](O)C[C@@H](O)CC(=O)O)[C@H]21 [Pravastatin] | 1.68 | 0 | 6.85 | 4.02 | 0 | 1.96 | 4.87 | 14.4 | 0 | 0 | 2.44 | 0 | 2.17 | 32.8 | 0 | 0 | 0 | 0 | 0.618 | 0 | 0 | 0 | 0 | 5.33 | 0 | 0 | 4.52
12 | Cc1cnc(NC(=O)Nc2cc(Br)c(C)cc2OC[C@@H]2CNCCO2)cn1 [Rabusertib] | 0 | 0 | 1.93 | 0 | 2.1 | 0.115 | 1.38 | 0 | 1.2 | 0 | 0 | 0 | 0 | 0 | 0 | 0 | 0 | 0 | 0 | 0 | 0 | 0 | 0 | 0 | 0 | 0.673 | 0
13 | CNC(=O)c1cc(Oc2ccc(NC(=O)Nc3cc(C(C)(C)C)nn3-c3ccc4ncccc4c3)c(F)c2)ccn1 [Rebastinib] | 0 | 0 | 0 | 0 | 0 | 0 | 0 | 0 | 0 | 0 | 0 | 4.01 | 0 | 0 | 0 | 0 | 0 | 0 | 0 | 2.09 | 0 | 0 | 0 | 0 | 0 | 0 | 0

Source: the supplement of paper PMC4862054
